# Patent US20220152144A1, “FOOD ADDITIVE INCLUDING MANNAN OLIGOSACCHARIDES TO ENHANCE ANIMAL PERFORMANCE AND METHOD OF USING THE SAME” (Vitech Bio-Chem Corporation, priority 2020, published 2022)
# Tests used:
# [1] = Growth performance of broiler chicks fed supplemented diets (Example 1); format: in vivo, broiler chicks (Cobb500); conditions: dose 45 ppm
# Method: Materials and Methods. Broiler chicks: A total of 960 1-day old broiler chicks (Name of breed: Cobb500™) (8 trt×6 rep×20 birds/pen) were randomly allocated to 8 treatment groups. Treatment groups: Treatment 1 was a corn/soybean meal diet (PC: 45 ppm avilamycin); Treatment 2 was a PC+50 g/T Fish hydrolysate+MOS (80:20 ratio); Treatment 3 was a PC+100 g/T Fish hydrolysate+MOS (80:20); and treatment 4 was PC+200 g/T Fish hydrolysate+MOS (80:20).
# (§1) The trial was conducted for 42 days. Body weight gain, feed intake, and FCR was measured at 14, 28, and 42 days. Cecal levels of E. coli, Salmonella, and lactobacillus were evaluated at 21 days.
# Measurements: Individual broiler weights and feed intake was collected in order to calculate body weight and body weight gain, feed intake, and gain-to-feed ratio by phase.
# One-way ANOVA and Duncan's multiple range test was used to separate the means. There is no difference found between treatments. The overall mortality during the 42 days period is 3.65% and it is non-treatment specific.
# E. coli = test: Bacterial counts in cecal samples of broiler chicks: E. coli; format: in vivo; conditions: 21 days, dose 45 ppm
# Method: as §1
# Lactobacilli = test: Bacterial counts in cecal samples of broiler chicks: Lactobacilli; format: in vivo; conditions: 21 days, dose 45 ppm
# Method: as §1
smiles,measurement,setting,value
"COC[C@H]1O[C@@H](OC2OC[C@@H]3O[C@]4(O[C@H]3[C@H]2OC(=O)C(C)C)O[C@H](C)[C@@](O)(C(C)=O)[C@@H]2OCO[C@H]24)[C@@H](OC)[C@@H](O)[C@@H]1O[C@@H]1O[C@H](C)[C@H](OC)[C@H](O[C@H]2C[C@@]3(C)OC4(C[C@@H](O)[C@H](O[C@H]5C[C@@H](O)[C@H](OC(=O)c6c(C)c(Cl)c(O)c(Cl)c6OC)[C@@H](C)O5)[C@@H](C)O4)O[C@@H]3[C@@H](C)O2)[C@H]1O (stereo partly shown) [Avilamycin, avilamycin]",body weight (BW),[1]; Day 0-14,442 g
same,body weight gain (BWG),[1]; Day 0-14,402 g
same,feed intake (FI),[1]; Day 0-14,583 g
same,food conversion ratio (FCR),[1]; Day 0-14,1.453
same,body weight (BW),[1]; Day 0-28,"1,550 g"
same,body weight gain (BWG),[1]; Day 0-28,"1,510 g"
same,feed intake (FI),[1]; Day 0-28,"2,212 g"
same,food conversion ratio (FCR),[1]; Day 0-28,1.472
same,body weight (BW),[1]; Day 14-28,"1,550 g"
same,body weight gain (BWG),[1]; Day 14-28,"1,108 g"
same,feed intake (FI),[1]; Day 14-28,"1,628 g"
same,food conversion ratio (FCR),[1]; Day 14-28,1.542
same,body weight (BW),[1]; d 28-42,"2,784 g"
same,body weight gain (BWG),[1]; d 28-42,"1,235 g"
same,feed intake (FI),[1]; d 28-42,"2,601 g"
same,food conversion ratio (FCR),[1]; d 28-42,2.123
same,body weight (BW),[1]; overall 0-42 days,"2,784 g"
same,body weight gain (BWG),[1]; overall 0-42 days,"2,745 g"
same,feed intake (FI),[1]; overall 0-42 days,"4,813 g"
same,food conversion ratio (FCR),[1]; overall 0-42 days,1.753
same,E. coli Counts,E. coli,7.29a Log10 CFU/g
same,Lactobacilli Counts,Lactobacilli,7.21 Log10 CFU/g
